Some test systems named below: SF-539 CNS; RPMI-8226 leukemia; OVCAR-3 ovarian; NCI-H23 lung; BT-549 breast; KM12 colon; SW-620 colon; EKVX NSCLC; 786-0 renal; ACHN renal.
Assay in all cases: growth of human tumour cells (NCI), 48 h

Results on seven compounds are retold here after PubChem BioAssay (NCI).

SMILES strings stand for the structures.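 Compound exposure: 48 hours, 5 concentrations, 96-well plates. The concentration for 50% growth inhibition is given as GI50. TGI is the concentration that stops growth completely.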

As to `COc1cccc(-c2c[nH]c3c(N/N=C/c4ccncc4)ncnc23)c1`, the GI50 with SF-539 CNS is 1.56 µM; in the experiment with RPMI-8226 leukemia, 5.62 µM; in the experiment with OVCAR-3 ovarian, 1.12 µM; in the experiment on NCI-H23 lung, 2.98 µM; in the experiment on BT-549 breast, 4.89 µM; in the experiment with KM12 colon it was 1.41 µM. The GI50 in the experiment on SW-620 colon was 1.5 µM; with EKVX NSCLC, 7.06 µM; in the experiment with 786-0 renal, 1.26 µM; with ACHN renal, 1.37 µM. The TGI with SF-539 CNS amounted to 6.81 µM; in the experiment with RPMI-8226 leukemia it was 14.4 µM; with OVCAR-3 ovarian, 6.26 µM; with NCI-H23 lung, 11.8 µM; in the experiment with BT-549 breast, 18.5 µM; in the experiment with KM12 colon it was 4.9 µM. In addition, the TGI is 5.39 µM in the experiment with SW-620 colon, 24.1 µM in the experiment on EKVX NSCLC, 18.6 µM with 786-0 renal and over 22.9 µM in the experiment with ACHN renal.

For the compound `Nc1ncnc2c1N=C(c1ccc3c(c1)OCO3)CC(c1ccc([N+](=O)[O-])cc1)N2` (centres undefined), the GI50 was over 100 µM with SF-539 CNS; 0.194 µM in the experiment with RPMI-8226 leukemia; 88.3 µM in the experiment with OVCAR-3 ovarian; over 100 µM with NCI-H23 lung; 1.68 µM in the experiment on BT-549 breast; 35.2 µM in the experiment on KM12 colon. Besides, the GI50 is 53.2 µM with SW-620 colon, 92.6 µM in the experiment with EKVX NSCLC, 79.1 µM with 786-0 renal and 29.1 µM in the experiment with ACHN renal. In addition, the TGI is over 100 µM in the experiment with SF-539 CNS; 49 µM with RPMI-8226 leukemia; over 100 µM in the experiment on OVCAR-3 ovarian; over 100 µM with NCI-H23 lung; 53.1 µM with BT-549 breast; over 100 µM in the experiment with KM12 colon. The TGI with SW-620 colon, in the experiment with EKVX NSCLC, with 786-0 renal and with ACHN renal was over 100 µM throughout.

With `O=C1OCC2=C1C(c1cccc(Cl)c1)c1cc3c(cc1N2CCO)OCCO3` (centres undefined), the GI50 with SF-539 CNS was 0.0467 µM; in the experiment on RPMI-8226 leukemia, 0.129 µM; in the experiment on OVCAR-3 ovarian, 0.0251 µM; in the experiment on NCI-H23 lung it was 0.097 µM; in the experiment on BT-549 breast, 0.147 µM; in the experiment on KM12 colon, 0.0431 µM. The GI50 in the experiment on SW-620 colon was 0.04 µM; in the experiment with EKVX NSCLC, 1.54 µM; with 786-0 renal, 0.064 µM; in the experiment on ACHN renal, 0.0733 µM. Further, the TGI in the experiment on SF-539 CNS was 0.975 µM; in the experiment with RPMI-8226 leukemia it was 19.2 µM; with OVCAR-3 ovarian it was 0.0618 µM; in the experiment with NCI-H23 lung, over 57.2 µM; in the experiment with BT-549 breast, 11.8 µM; in the experiment on KM12 colon it was 1.72 µM. The TGI is over 100 µM in the experiment with SW-620 colon, over 89.8 µM in the experiment on EKVX NSCLC, 5.5 µM in the experiment on 786-0 renal and over 100 µM in the experiment on ACHN renal.

Regarding `C=CCN=C(N/N=C/c1ccc([N+](=O)[O-])o1)NS(=O)(=O)c1cc(C(=O)Nc2ccc(Cl)cc2)c(Cl)cc1SC`, the GI50 is 5.92 µM with SF-539 CNS; 0.504 µM in the experiment on RPMI-8226 leukemia; 1.57 µM in the experiment with OVCAR-3 ovarian; over 62.7 µM in the experiment on NCI-H23 lung; 5.05 µM with BT-549 breast; 6.89 µM in the experiment with KM12 colon. Further, the GI50 with SW-620 colon is 1.02 µM; with EKVX NSCLC it was 2.63 µM; in the experiment on 786-0 renal, 6.94 µM; with ACHN renal it was 3.55 µM. Besides, the TGI in the experiment with SF-539 CNS is over 100 µM; with OVCAR-3 ovarian, 14.1 µM; with NCI-H23 lung, over 100 µM; in the experiment with BT-549 breast, over 79.7 µM; in the experiment on KM12 colon, over 100 µM; in the experiment with SW-620 colon, over 100 µM. Besides, the values for the TGI in the experiment with EKVX NSCLC, with 786-0 renal and with ACHN renal were 6.58 µM, over 100 µM and over 50.1 µM, respectively.

Consider `CCCCOC(=O)N1CCN(/[N+]([O-])=N/Oc2ccc([N+](=O)[O-])cc2[N+](=O)[O-])CC1`, for which the GI50 in the experiment on SF-539 CNS was 2.56 µM; with RPMI-8226 leukemia, 2.3 µM; in the experiment with OVCAR-3 ovarian, 1.68 µM; in the experiment on NCI-H23 lung, 4.6 µM; with BT-549 breast, 4.87 µM; in the experiment with KM12 colon, 3.65 µM. For the same compound, the GI50 in the experiment on SW-620 colon is 3.38 µM; in the experiment with EKVX NSCLC, 8.01 µM; in the experiment with 786-0 renal, 2.47 µM; in the experiment with ACHN renal, 2.53 µM. The TGI turned out to be 6.11 µM in the experiment with SF-539 CNS; 5.47 µM with RPMI-8226 leukemia; 4.12 µM in the experiment with OVCAR-3 ovarian; 19.5 µM in the experiment on NCI-H23 lung; 17.7 µM in the experiment on BT-549 breast; 14.5 µM in the experiment with KM12 colon. Further, the TGI in the experiment on SW-620 colon is over 100 µM; in the experiment with EKVX NSCLC, 23.5 µM; in the experiment on 786-0 renal it was 5.67 µM; in the experiment with ACHN renal, 7.19 µM.

Consider `Cc1c(C(=O)Nc2ccccc2)sc2ncn(Cc3cccc(Cl)c3)c(=O)c12`, for which the GI50 with SF-539 CNS was 22.4 µM; in the experiment on RPMI-8226 leukemia, 10.4 µM; in the experiment with OVCAR-3 ovarian, 41 µM; in the experiment on NCI-H23 lung it was 6.5 µM; in the experiment on BT-549 breast it was 11.3 µM; in the experiment with KM12 colon, 99 µM. The GI50 in the experiment on SW-620 colon was 53.3 µM; in the experiment with EKVX NSCLC it was 30.2 µM; in the experiment on 786-0 renal it was 29.6 µM; in the experiment with ACHN renal, 30.2 µM. Further, the TGI in the experiment on SF-539 CNS is over 100 µM; in the experiment on RPMI-8226 leukemia it was over 100 µM; in the experiment on OVCAR-3 ovarian, over 100 µM; in the experiment with NCI-H23 lung it was over 100 µM; in the experiment with BT-549 breast, 27.6 µM; in the experiment on KM12 colon, over 100 µM. For the same compound, the TGI in the experiment on SW-620 colon, with EKVX NSCLC, with 786-0 renal and with ACHN renal was over 100 µM in each case.

As for `COc1cc2nc(N3CCCC3)nc(NCc3ccccc3)c2cc1OC`, the GI50 in the experiment on SF-539 CNS was 1.71 µM; in the experiment with RPMI-8226 leukemia, 2.44 µM; in the experiment with OVCAR-3 ovarian, 2.27 µM; in the experiment with NCI-H23 lung it was 11.2 µM; in the experiment with BT-549 breast it was 3.52 µM; with KM12 colon, 4.52 µM. The GI50 with SW-620 colon is 2.28 µM; in the experiment with EKVX NSCLC, 6.04 µM; in the experiment on 786-0 renal it was 1.65 µM; in the experiment on ACHN renal it was 1.89 µM. The TGI in the experiment on SF-539 CNS turned out to be 3.12 µM; in the experiment with RPMI-8226 leukemia, 5.99 µM; in the experiment with OVCAR-3 ovarian it was 5.53 µM; with NCI-H23 lung, 25.2 µM; in the experiment on BT-549 breast, 13.4 µM; in the experiment on KM12 colon it was 17 µM. The TGI stood at 6.24 µM in the experiment on SW-620 colon, 19.2 µM with EKVX NSCLC, 3.07 µM with 786-0 renal and 3.89 µM with ACHN renal.
